Measured values reported in PubChem BioAssay (NCI).
“And” between values parts separate entries of the source, which are not always exact repeats. Equal values may be shown once.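 1) Cells in 96-well plates. 2) Compound, 48 h, 5 concentrations. 3) Linear interpolation between surrounding doses. 4) Unreached endpoint = highest concentration. At the TGI there is no net growth.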

Tests used:
Assay in all cases: inhibition of tumour cell growth, NCI panel, 48 h
[1] = tested on: HS 578T breast
[2] = tested on: BT-549 breast
[3] = tested on: NCI-H226 lung
[4] = tested on: DU-145 prostate
[5] = tested on: 786-0 renal
[6] = tested on: SF-539 CNS
[7] = tested on: SK-MEL-28 melanoma
[8] = tested on: UACC-62 melanoma
[9] = tested on: MALME-3M melanoma
[10] = tested on: SNB-19 CNS
[11] = tested on: A549 NSCLC
[12] = tested on: IGROV1 ovarian
[13] = tested on: HOP-62 NSCLC
[14] = tested on: RXF 393 renal
[15] = tested on: SK-MEL-5 melanoma
[16] = tested on: HCT-116 colon
[17] = tested on: UACC-257 melanoma
[18] = tested on: NCI/ADR-RES ovarian

Compound | TGI [1] [µM] | TGI [2] [µM] | TGI [3] [µM] | TGI [4] [µM] | TGI [5] [µM] | TGI [6] | TGI [7] [µM] | TGI [8] [µM] | TGI [9] [µM] | TGI [10] [µM] | TGI [11] | TGI [12] | TGI [13] | TGI [14] [µM] | TGI [15] | TGI [16] [µM] | TGI [17] [µM] | TGI [18] [µM]
O=C1Cc2c([nH]c3cc(Br)ccc23)-c2ccccc2N1 | 69.9 | 46.9 | 34.7 | 79.7 | > 100 | 37.3 µM | > 100 | 49.2 | 48.1 | 58 | 64.1 µM | 99.7 µM | 26 µM | 12.2 | 38.9 µM | 15.9 | – | –
Cc1ccccc1NC(=O)CC(=O)n1nc(-c2ccccc2)c(N=Nc2ccc([N+](=O)[O-])cc2)c1-c1ccccc1 | – | – | 58.4 | – | 67.1 | 52 µM | 96.9 | 29.6 | 75.9 | > 100 | 41.8 µM | > 100 µM | 48.3 µM | 82 | 25.9 µM | 31.5 | 56.4 | –
CC1(C)O[C@@H](CP(c2ccc3ccccc3c2)c2ccc3ccccc3c2)[C@H](CP(c2ccc3ccccc3c2)c2ccc3ccccc3c2)O1 | – | > 100 | > 100 | > 100 | > 100 | – | > 100 | > 100 | – | > 100 | > 100 µM | > 100 µM | > 100 µM | > 100 | > 100 µM | > 100 | > 100 | > 100
COc1cccc(-c2cc(=O)c3cc(N4CCCC4)ccc3[nH]2)c1 | > 10 | – | 0.00347 | < 0.001 | > 10 | < 0.001 µM | > 10 | > 10 | 9.53 | < 0.001 | > 10 µM | > 10 µM | > 10 µM | – | 0.00747 µM | 0.0348 | > 10 | < 0.001
CC1CC/C(=C\c2ccc(F)cc2)C2=C1C(c1ccc(F)cc1)n1c(s/c(=C\c3ccc(Cl)cc3)c1=O)=N2 (stereo not drawn) | > 100 | – | – | > 100 | > 100 | – | > 100 | > 100 | – | > 100 | > 100 µM | > 100 µM | > 100 µM | > 100 | > 100 µM | > 100 | > 100 | –
Nc1ccc2c(c1)S(=O)(=O)c1cc(N)ccc1-2 | > 100 | > 100 | > 100 | > 100 | > 100 | > 100 µM | – | > 100 | – | > 100 | > 100 µM | > 100 µM | > 100 µM | > 100 | > 100 µM | > 100 | > 100 | > 100
COc1ccc(-c2cc(-c3ccccc3)nc(N)n2)c(O)c1 | > 100 | > 29.3 | > 100 | – | > 100 | > 100 µM | > 100 | > 100 | > 100 | > 100 | > 100 µM | > 100 µM | > 100 µM | > 100 | > 100 µM | > 100 | > 100 | > 100
NC(=O)N=Nc1c2ccccc2n2[nH]ccc12 | > 100 | – | > 100 | > 100 | > 100 | > 100 µM | > 100 | > 100 | > 100 | > 100 | > 100 µM | > 100 µM | > 100 µM | 59.4 | > 100 µM | > 100 | > 100 | > 100
COC1=CC(=O)C2C(C1=O)[C@@H]1c3ccccc3OC[C@H]21 (stereo partly drawn) | – | – | > 100 | – | > 100 | > 100 µM | > 100 | – | > 100 | > 100 | > 100 µM | – | > 100 µM | > 100 | > 100 µM | > 100 | – | –
COC(=O)C(=O)C(C(=O)C(=O)Nc1nc(=S)[nH][nH]1)c1nc2ccc([N+](=O)[O-])cc2[nH]c1=O (stereo not drawn) | > 100 | > 100 | > 100 | – | > 100 | > 100 µM | > 100 | > 100 | > 100 | > 100 | > 100 µM | > 100 µM | > 100 µM | > 100 | > 100 µM | > 100 | > 100 | > 100
OCC(O)C(O)C(C=NNc1ncnc2ccc(Br)cc12)=NNc1ncnc2ccc(Br)cc12 (stereo not drawn) | > 100 | – | – | 9.82 | > 100 | 33.7 µM and > 100 µM | > 100 | – | – | > 100 | 60.7 µM and > 100 µM | 12.2 µM and > 100 µM | 25 µM and > 100 µM | 72.4 | 2.68 µM and 4.28 µM | > 100 | > 100 | –
CCCC(=O)OC1=C(c2ccccc2)Sc2ccccc2-n2cccc21 | – | – | – | > 10 | > 10 | – | > 10 | > 10 | > 10 | – | > 10 µM | > 10 µM | > 10 µM | > 10 | > 10 µM | – | > 10 | –
CC(=O)Oc1cc2c(n(C)c1=O)CCC2 | – | > 100 | > 100 | > 100 | > 100 | > 100 µM | > 100 | – | > 100 | > 100 | > 100 µM | > 100 µM | > 100 µM | – | > 100 µM | > 100 | > 100 | > 100
Cc1cc2nc3c(C#N)c4c(c(Nc5ccc(Cl)cc5)n3c2cc1C)CCC4 | – | 44.8 | 64.7 | 75.1 | 29.3 | 48.7 µM | 47.2 | – | 55 | – | – | – | > 100 µM | 33.8 | 32.9 µM | 30.4 | 76.6 | 48.1
Cc1ccc(C(=O)C(C)N)cc1C (stereo not drawn) | – | – | > 100 | – | > 100 | > 100 µM | > 100 | > 100 | > 100 | > 100 | > 100 µM | > 100 µM | > 100 µM | > 100 | > 100 µM | > 100 | > 100 | –
